Test results published in ChEMBL document CHEMBL4507256 (2021).

Experiments:
[1] = target: Adenosine receptor A3 (Homo sapiens) (UniProt P0DMS8); experiment: A3 CEREP ligand profiling; conditions: Compound concentration 10.0 uM
[2] = target: Adrenergic receptor alpha-2 (Homo sapiens) (UniProt P08913+P18825+P18089); experiment: alpha 2 CEREP ligand profiling; type: protein assay; conditions: Compound concentration 10.0 uM
[3] = target: Beta-2 adrenergic receptor (Homo sapiens) (UniProt P07550); experiment: beta 2 CEREP ligand profiling; conditions: Compound concentration 10.0 uM
[4] = target: Melatonin receptor type 1A (Homo sapiens) (UniProt P48039); experiment: MT1 (h) CEREP ligand profiling; conditions: Compound concentration 10.0 uM
[5] = target: Delta-type opioid receptor (Homo sapiens) (UniProt P41143); experiment: delta 2 (h) CEREP ligand profiling; conditions: Compound concentration 10.0 uM
[6] = target: Mu-type opioid receptor (Homo sapiens) (UniProt P35372); experiment: mu (h) (MOP) CEREP ligand profiling; conditions: Compound concentration 10.0 uM
[7] = target: 5-hydroxytryptamine receptor 1B (Homo sapiens) (UniProt P28222); experiment: 5-HT1B CEREP ligand profiling; conditions: Compound concentration 10.0 uM
[8] = target: 5-hydroxytryptamine receptor 7 (Homo sapiens) (UniProt P34969); experiment: 5-HT7 (h) CEREP ligand profiling; conditions: Compound concentration 10.0 uM
[9] = target: Vasopressin V1a receptor (Homo sapiens) (UniProt P37288); experiment: V1a (h) CEREP ligand profiling; conditions: Compound concentration 10.0 uM
Vasopressin V1a receptor (Homo sapiens), sequence (P37288 whole entry, looked up): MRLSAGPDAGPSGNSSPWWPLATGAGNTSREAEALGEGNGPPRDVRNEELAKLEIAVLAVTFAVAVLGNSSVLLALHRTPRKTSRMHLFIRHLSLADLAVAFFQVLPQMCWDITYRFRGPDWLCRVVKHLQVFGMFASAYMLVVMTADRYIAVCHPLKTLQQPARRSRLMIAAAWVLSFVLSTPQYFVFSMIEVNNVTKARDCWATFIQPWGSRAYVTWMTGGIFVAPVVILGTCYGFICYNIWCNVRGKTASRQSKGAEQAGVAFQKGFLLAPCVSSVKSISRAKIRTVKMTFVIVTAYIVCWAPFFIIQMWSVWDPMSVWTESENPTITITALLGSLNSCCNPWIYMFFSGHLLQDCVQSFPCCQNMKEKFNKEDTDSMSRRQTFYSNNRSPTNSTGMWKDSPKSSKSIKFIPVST

[10] = target: Beta-1 adrenergic receptor (Homo sapiens) (UniProt P08588); experiment: beta1 (h) CEREP ligand profiling; conditions: Compound concentration 10.0 uM
[11] = target: Type-1 angiotensin II receptor (Homo sapiens) (UniProt P30556); experiment: AT1 (h) CEREP ligand profiling; conditions: Compound concentration 10.0 uM
[12] = target: Bombesin receptor (Homo sapiens) (UniProt P28336+P32247+P30550); experiment: BB (non-select) CEREP ligand profiling; type: protein assay; conditions: Compound concentration 10.0 uM
Bombesin receptor (Homo sapiens), sequence (P28336 whole entry, looked up): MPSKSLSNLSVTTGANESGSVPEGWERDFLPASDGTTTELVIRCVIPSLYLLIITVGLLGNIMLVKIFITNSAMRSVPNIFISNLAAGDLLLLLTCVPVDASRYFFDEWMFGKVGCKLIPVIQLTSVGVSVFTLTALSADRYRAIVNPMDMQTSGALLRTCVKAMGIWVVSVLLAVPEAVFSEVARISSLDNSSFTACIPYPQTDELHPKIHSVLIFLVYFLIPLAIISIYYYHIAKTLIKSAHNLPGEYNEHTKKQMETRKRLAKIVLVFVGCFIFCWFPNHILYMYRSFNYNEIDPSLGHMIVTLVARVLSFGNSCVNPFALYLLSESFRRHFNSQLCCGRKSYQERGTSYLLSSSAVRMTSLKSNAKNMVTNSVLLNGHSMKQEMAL
Bombesin receptor (Homo sapiens), sequence (P30550 whole entry, looked up): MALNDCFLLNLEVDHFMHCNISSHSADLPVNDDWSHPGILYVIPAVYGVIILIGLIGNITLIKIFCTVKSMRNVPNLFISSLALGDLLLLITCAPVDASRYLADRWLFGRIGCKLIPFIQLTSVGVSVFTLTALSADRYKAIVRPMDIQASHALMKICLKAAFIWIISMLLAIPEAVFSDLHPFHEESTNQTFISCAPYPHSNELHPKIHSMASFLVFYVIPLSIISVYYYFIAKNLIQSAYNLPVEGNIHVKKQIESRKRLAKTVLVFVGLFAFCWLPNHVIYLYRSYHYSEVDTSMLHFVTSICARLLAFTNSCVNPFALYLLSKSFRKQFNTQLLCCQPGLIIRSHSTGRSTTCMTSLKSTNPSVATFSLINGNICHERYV
Bombesin receptor (Homo sapiens), sequence (P32247 whole entry, looked up): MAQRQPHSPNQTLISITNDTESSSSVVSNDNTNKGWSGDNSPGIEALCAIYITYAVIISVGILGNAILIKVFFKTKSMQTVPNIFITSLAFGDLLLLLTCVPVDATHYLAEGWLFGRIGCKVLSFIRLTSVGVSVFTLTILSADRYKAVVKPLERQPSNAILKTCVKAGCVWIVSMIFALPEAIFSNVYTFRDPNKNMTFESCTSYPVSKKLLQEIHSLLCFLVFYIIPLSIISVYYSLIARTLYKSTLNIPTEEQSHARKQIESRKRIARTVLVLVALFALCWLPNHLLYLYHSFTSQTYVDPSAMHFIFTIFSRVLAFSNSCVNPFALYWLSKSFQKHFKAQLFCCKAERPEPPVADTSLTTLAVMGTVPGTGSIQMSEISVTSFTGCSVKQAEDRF

[13] = target: D(3) dopamine receptor (Homo sapiens) (UniProt P35462); experiment: D3 (h) CEREP ligand profiling; conditions: Compound concentration 10.0 uM
[14] = target: D(1B) dopamine receptor (Homo sapiens) (UniProt P21918); experiment: D5 (h) CEREP ligand profiling; conditions: Compound concentration 10.0 uM
D(1B) dopamine receptor (Homo sapiens), sequence (P21918 whole entry): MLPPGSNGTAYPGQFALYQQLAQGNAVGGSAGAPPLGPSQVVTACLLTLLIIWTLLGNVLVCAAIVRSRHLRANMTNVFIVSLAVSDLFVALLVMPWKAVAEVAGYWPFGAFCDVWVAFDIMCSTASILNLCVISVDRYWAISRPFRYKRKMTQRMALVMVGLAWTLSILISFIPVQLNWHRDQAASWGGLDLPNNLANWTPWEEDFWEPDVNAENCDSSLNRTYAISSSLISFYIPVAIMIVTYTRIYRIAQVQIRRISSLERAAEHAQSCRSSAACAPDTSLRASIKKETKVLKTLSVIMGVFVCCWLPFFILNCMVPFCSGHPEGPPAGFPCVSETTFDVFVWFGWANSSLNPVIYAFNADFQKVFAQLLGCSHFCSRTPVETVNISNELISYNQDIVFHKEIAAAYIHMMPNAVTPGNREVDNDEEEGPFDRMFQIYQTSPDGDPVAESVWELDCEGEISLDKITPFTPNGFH

[15] = target: Endothelin receptor type B (Homo sapiens) (UniProt P24530); experiment: ETB (h) CEREP ligand profiling; conditions: Compound concentration 10.0 uM
Endothelin receptor type B (Homo sapiens), sequence (P24530 whole entry): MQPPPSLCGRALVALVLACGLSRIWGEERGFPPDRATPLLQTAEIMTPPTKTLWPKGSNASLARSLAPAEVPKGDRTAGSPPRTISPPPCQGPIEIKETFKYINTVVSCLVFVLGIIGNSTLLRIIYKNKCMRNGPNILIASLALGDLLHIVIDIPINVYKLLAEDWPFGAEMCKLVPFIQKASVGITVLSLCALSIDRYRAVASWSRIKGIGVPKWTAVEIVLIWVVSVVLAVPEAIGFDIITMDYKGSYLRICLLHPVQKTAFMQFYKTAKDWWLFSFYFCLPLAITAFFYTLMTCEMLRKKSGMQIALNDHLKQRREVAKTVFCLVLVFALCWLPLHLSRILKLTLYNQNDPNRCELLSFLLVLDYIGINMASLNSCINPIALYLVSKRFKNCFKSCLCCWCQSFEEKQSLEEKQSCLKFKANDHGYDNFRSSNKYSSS

[16] = target: Platelet-derived growth factor receptor (Homo sapiens) (UniProt P09619+P16234); experiment: PDGF CEREP ligand profiling; type: protein-complex assay; conditions: Compound concentration 10.0 uM
[17] = target: T1, Muscarinic acetylcholine receptor M5 (Homo sapiens) (UniProt P08912); experiment: M5 (h) CEREP ligand profiling; conditions: Compound concentration 10.0 uM
T1 sequence (whole entry): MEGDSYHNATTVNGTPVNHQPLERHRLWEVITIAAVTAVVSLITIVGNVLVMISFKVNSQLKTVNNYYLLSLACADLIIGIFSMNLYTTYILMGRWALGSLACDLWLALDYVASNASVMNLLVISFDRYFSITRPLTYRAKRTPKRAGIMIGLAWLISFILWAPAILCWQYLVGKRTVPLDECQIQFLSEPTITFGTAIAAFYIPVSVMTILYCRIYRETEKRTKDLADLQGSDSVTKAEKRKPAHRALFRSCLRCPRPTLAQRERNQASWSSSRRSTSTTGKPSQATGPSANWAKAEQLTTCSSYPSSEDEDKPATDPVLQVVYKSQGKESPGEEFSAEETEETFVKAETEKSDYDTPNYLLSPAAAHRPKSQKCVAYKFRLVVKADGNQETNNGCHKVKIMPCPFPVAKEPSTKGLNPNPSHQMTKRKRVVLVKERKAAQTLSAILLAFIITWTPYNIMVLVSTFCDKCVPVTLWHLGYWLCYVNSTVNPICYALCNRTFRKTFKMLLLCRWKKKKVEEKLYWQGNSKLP

[18] = target: Substance-K receptor (Homo sapiens) (UniProt P21452); experiment: NK2 (h) CEREP ligand profiling; conditions: Compound concentration 10.0 uM
Substance-K receptor (Homo sapiens), sequence (P21452 whole entry): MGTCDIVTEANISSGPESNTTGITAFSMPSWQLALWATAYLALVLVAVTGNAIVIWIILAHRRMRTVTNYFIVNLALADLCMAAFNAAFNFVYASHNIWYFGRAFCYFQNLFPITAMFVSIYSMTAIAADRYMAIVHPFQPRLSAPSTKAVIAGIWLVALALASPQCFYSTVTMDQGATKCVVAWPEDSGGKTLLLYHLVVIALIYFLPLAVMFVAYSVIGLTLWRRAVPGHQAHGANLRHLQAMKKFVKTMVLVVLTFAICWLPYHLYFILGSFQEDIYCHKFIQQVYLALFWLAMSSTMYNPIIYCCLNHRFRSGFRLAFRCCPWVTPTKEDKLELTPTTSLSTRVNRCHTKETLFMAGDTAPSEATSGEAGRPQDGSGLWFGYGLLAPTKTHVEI

[19] = target: Neuropeptide Y receptor type 1 (Homo sapiens) (UniProt P25929); experiment: Y1 (h) CEREP ligand profiling; conditions: Compound concentration 10.0 uM
Neuropeptide Y receptor type 1 (Homo sapiens), sequence (P25929 whole entry): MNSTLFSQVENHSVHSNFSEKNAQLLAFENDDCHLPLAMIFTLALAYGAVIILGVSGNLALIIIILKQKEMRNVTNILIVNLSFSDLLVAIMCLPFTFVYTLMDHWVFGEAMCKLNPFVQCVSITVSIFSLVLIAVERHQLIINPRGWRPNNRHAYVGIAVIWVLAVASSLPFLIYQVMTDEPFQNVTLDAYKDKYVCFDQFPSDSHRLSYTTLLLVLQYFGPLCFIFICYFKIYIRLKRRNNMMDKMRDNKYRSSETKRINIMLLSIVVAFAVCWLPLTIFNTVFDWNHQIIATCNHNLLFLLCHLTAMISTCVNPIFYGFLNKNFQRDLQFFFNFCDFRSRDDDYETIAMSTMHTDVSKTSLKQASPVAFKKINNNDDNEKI

[20] = target: Neurotensin receptor type 1 (Homo sapiens) (UniProt P30989); experiment: NT1 (h) CEREP ligand profiling; conditions: Compound concentration 10.0 uM
[21] = target: Nociceptin receptor (Homo sapiens) (UniProt P41146); experiment: ORL1 (h) (NOP) CEREP ligand profiling; conditions: Compound concentration 10.0 uM
[22] = target: P2X receptor (Rattus norvegicus) (UniProt P51579+P49653+P51578+Q64663+P47824+P51577+P49654); experiment: P2X CEREP ligand profiling; type: protein assay; conditions: Compound concentration 10.0 uM
[23] = target: 5-hydroxytryptamine receptor 2A (Homo sapiens) (UniProt P28223); experiment: 5-HT2A (h) CEREP ligand profiling; conditions: Compound concentration 10.0 uM
[24] = target: 5-hydroxytryptamine receptor 6 (Homo sapiens) (UniProt P50406); experiment: 5-HT6 (h) CEREP ligand profiling; conditions: Compound concentration 10.0 uM
[25] = target: Vasoactive intestinal polypeptide receptor 1 (Homo sapiens) (UniProt P32241); experiment: VIP1 (h) CEREP ligand profiling; conditions: Compound concentration 10.0 uM
[26] = system: Epidermal growth factor receptor (Homo sapiens), P00533 [L858R,T790M]; conditions: Compound concentration 1000.0 nM
[27] = target: Histamine H2 receptor (Homo sapiens) (UniProt P25021); conditions: Compound concentration 10.0 uM
[28] = target: T2, Muscarinic acetylcholine receptor M1 (Homo sapiens) (UniProt P11229); conditions: Compound concentration 10.0 uM
T2 sequence (whole entry): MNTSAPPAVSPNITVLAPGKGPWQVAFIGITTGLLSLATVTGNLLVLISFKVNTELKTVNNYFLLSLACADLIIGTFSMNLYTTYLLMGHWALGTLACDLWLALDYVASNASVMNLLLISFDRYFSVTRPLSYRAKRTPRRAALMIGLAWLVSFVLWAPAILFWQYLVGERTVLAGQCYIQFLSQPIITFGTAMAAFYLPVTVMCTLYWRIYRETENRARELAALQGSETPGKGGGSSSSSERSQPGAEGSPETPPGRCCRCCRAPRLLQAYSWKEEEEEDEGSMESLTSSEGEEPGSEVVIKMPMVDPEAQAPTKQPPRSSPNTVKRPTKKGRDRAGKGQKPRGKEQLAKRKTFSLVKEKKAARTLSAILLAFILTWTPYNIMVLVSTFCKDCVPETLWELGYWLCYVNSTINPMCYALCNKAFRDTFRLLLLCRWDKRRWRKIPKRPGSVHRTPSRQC

[29] = target: Kappa-type opioid receptor (Cavia porcellus) (UniProt P41144); experiment: kappa (guinea pig) CEREP ligand profiling; conditions: Compound concentration 10.0 uM
[30] = target: Calcium/calmodulin-dependent protein kinase kinase 2 (Homo sapiens) (UniProt Q96RR4); conditions: Compound concentration 1000.0 nM
[31] = target: Beta-adrenergic receptor kinase 1 (Homo sapiens) (UniProt P25098); conditions: Compound concentration 1000.0 nM
Beta-adrenergic receptor kinase 1 (Homo sapiens), sequence (P25098 whole entry): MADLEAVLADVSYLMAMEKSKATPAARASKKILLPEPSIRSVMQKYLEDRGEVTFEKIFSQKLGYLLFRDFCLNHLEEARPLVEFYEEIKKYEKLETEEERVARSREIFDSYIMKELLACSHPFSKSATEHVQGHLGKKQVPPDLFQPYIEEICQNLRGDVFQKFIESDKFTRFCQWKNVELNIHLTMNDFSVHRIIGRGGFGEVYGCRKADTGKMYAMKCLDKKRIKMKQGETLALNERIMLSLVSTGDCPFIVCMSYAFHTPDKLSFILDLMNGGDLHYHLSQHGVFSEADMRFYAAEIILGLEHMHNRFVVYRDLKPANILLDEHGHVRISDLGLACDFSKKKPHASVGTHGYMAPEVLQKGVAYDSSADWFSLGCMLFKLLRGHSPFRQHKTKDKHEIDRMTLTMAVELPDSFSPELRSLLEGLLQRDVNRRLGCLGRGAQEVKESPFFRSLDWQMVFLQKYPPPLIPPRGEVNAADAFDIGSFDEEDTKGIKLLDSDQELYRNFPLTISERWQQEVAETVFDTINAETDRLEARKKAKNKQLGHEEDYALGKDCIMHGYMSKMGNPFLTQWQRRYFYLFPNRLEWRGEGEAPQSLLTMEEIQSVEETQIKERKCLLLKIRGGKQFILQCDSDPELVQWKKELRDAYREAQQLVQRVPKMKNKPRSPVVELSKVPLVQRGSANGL

[32] = target: Dual specificity mitogen-activated protein kinase kinase 6 (Homo sapiens) (UniProt P52564); conditions: Compound concentration 1000.0 nM
[33] = target: Misshapen-like kinase 1 (Homo sapiens) (UniProt Q8N4C8); conditions: Compound concentration 1000.0 nM
[34] = target: Serine/threonine-protein kinase D3 (Homo sapiens) (UniProt O94806); conditions: Compound concentration 1000.0 nM
Serine/threonine-protein kinase D3 (Homo sapiens), sequence (O94806 whole entry): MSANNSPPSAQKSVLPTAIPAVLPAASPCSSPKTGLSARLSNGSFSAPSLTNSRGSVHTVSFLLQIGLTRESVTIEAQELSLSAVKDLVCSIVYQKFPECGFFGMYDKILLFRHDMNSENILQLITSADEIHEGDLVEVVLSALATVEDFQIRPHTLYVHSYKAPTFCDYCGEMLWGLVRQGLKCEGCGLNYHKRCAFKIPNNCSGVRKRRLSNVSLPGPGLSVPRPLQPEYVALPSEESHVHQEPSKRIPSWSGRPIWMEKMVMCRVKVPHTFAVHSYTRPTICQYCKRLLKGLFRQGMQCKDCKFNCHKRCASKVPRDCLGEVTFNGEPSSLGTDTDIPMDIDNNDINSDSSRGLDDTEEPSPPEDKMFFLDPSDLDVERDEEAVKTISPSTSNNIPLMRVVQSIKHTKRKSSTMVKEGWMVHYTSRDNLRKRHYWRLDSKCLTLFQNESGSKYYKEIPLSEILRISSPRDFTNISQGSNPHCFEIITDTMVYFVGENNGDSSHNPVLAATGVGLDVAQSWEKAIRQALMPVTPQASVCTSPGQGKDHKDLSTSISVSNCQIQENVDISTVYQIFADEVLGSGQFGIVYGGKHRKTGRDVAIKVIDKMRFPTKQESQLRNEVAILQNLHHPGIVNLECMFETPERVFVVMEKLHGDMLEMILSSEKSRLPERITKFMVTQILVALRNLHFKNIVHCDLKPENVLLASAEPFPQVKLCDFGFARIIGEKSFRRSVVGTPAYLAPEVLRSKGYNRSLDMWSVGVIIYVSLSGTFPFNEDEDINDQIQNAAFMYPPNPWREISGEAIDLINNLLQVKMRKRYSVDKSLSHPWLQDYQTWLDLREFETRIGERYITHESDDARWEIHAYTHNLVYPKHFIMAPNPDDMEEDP

CCC(=N\O)/C(C)=C/c1ccc(F)cc1 [A-079]
inactive: inhibition [1] 27% | inhibition [2] -1% | inhibition [3] -3% | inhibition [4] 31% | inhibition [5] 11% | inhibition [6] 12% | inhibition [7] 14% | inhibition [8] 17% | inhibition [9] -3% | inhibition [10] -2% | inhibition [11] -1% | inhibition [12] -3% | inhibition [13] 14% | inhibition [14] -8% | inhibition [15] 5% | inhibition [16] -6% | inhibition [17] -4% | inhibition [18] 2% | inhibition [19] 0% | inhibition [20] -5% | inhibition [21] -5% | inhibition [22] -2% | inhibition [23] -1% | inhibition [24] 0% | inhibition [25] 0% | residual activity [26] 100% | inhibition [27] 0.46% | inhibition [28] 15.2% | inhibition [29] -4%

CCC(=N\O)/C(C)=C/c1ccc(F)c(C)c1 [A-226]
inactive: residual activity [30] 88% | residual activity [26] 100% | residual activity [31] 100% | residual activity [32] 100% | residual activity [33] 92% | residual activity [34] 100% | inhibition [28] -2.46%
